pEC50: −log10 of the molar value. “And” between values parts separate entries of the source, which are not always exact repeats. Equal entries are not always repeated. Where two headings read alike, the source gives them in different places.
Key:
[1] = system: T. gondii tachyzoites (type II ME49-FLuc); experiment: Luciferase-based tachyzoite growth assay; type: cell-based, Toxoplasma gondii; set-up: EC50 log inhib vs normalized response: unit: µM
Procedure: All assays were carried out in a 96-well plate format containing confluent HFF monolayers to support parasite growth. To avoid edge effects, only the inner 60 wells of each plate were used. All compounds described were provided by the Broad Institute as 10 mM stocks in 100% DMSO and stored at −80 °C prior to use. Pyrimethamine (Sigma-Aldrich) was prepared as 5 mM stock in 100% DMSO and stored at −20 °C prior to use.
(§1) All statistical analyses were conducted using Prism 9 (GraphPad Software, Inc.). Dose–response inhibition curves for parasite and host cell toxicity screens (EC50 values) were generated using (Log(inhibitor) vs. normalized response—Variable slope) function. […] For multiple comparisons, two-way ANOVA analysis function using either Sidák’s multiple comparisons test or Dunnett’s multiple comparisons test was applied as indicated.

in vitro = type: cell-based; conditions: human, Caco-2; for pEC50: nuclei count, 44 h, top 20 μM; for selectivity ratio: EC50 host cell/EC50 T. gondii, read-out: Caco-2 fold selectivity
Procedure: (§2) For the toxicity screen, compounds were tested in 96-well plates using all the wells as no edge affect was observed. Compounds were diluted to 40 μM (2x concentration in 10% DMEM, 0.4% DMSO) before step-wise, 3-fold dilution in 10% DMEM to create 10-dose series (20 μM to 0.001 μM). Host cells were plated in black, μ-Clear 96-well plates (Greiner Bio-One). We compared several lineages including HepG2 (human hepatocellular carcinoma (ATCC-HB-8065)), THP-1 (human monocytic tumor line), SH-SY5Y (human neuroblastoma (ATCC CRL-2266)), A549 (human lung carcinoma (ATCC CRM-CCL-185)) and Caco-2 (human intestinal adenocarcinoma (ATCC HTB-37)) and HFF (primary human foreskin fibroblast) obtained from the laboratory of John Boothroyd at Stanford University. Cells were maintained in culture media according to the formulations recommended by ATCC. Cells were plated at a density (ranging from of 5 × 10^3 to 2 × 10^4 cells/well (100 μL vol)) resulting in sub-confluent monolayers to allow expansion during the 2 day growth assay. THP-1 cells were treated with 10 ng/ml phorbol 12-myristate 13-acetate (PMA) for 24 h to differentiate into macrophages before compound addition. For all other cells, compounds were added at 6 h post seeding to host cells containing plates (200 μL final volume, 0.2% DMSO) and incubated in culture medium at 37 °C supplemented with 5% CO2. At 44 h post compound addition (50 h total growth time), culture media was aspirated and replaced with Live Imaging solution (ThermoFisher) supplemented with 10 μg/mL Hoeschst 33342 (Sigma) for 20 min at 37 °C. […] Alternatively, plates fixed with 4% formaldehyde for 10 min and stained with 10 μg/mL Hoeschst 33342 (Sigma) for 20 min and imaged using a Cytation 3 multi-mode imager (DAPI, 10x objective, 4 images/well) and nuclei quantified using the Gen5 imager software (v3.08). Assays were repeated with two technical replicates within each of two independent biological replicates.
as §1

[2] = system: in vitro derived T. gondii ME49-FLuc bradyzoites; experiment: Plaque assay of bradyzoites induced in vitro for 14 days; type: cell-based, Toxoplasma gondii; conditions: Fig 5F, replicates
Procedure: To monitor the effects of compounds on more mature in vitro derived bradyzoites, ME49-Fluc tachyzoites were inoculated onto HFF monolayers grown in T25[2] flasks and bradyzoites were induced for 12 days in RPMI 1640 pH 8.2 at ambient CO2 and 37°C. Cultures were then treated with compounds at EC90 or 3XEC90 for another 2 days. At the end of 14 days, monolayers were scraped and passed through a 23 g needle to liberate cysts, followed by centrifugation (400 × g, 10 min, 4 °C). Pellets were resuspended with Pearce^TM streptavidin magnetic beads (Thermo Fisher) pre-coupled with biotinylated DBL (Vector laboratories) and incubated for 1 h at 4 °C. Beads were collected and washed twice using a magnetic stand, followed by treatment with 0.25 mg/ml trypsin for 10 min to liberate bradyzoites. Released bradyzoites were collected from the supernatant and counted using a hemocytometer. Bradyzoites were inoculated onto 6-well plates confluent with HFF monolayers and cultured for 14 days, followed by ethanol fixation and staining with 0.01% crystal violet. Plaques or foci of infection were imaged using an Axiovert 100 microscope equipped with an AxioCam color camera and analyzed by ImageJ.

[3] = system: A549 (human lung carcinoma); experiment: in vitro; type: cell-based; conditions: EC50 host cell/EC50 T. gondii
Procedure: as §2, §1

[4] = system: HepG2 (human hepatocellular carcinoma); experiment: in vitro; type: cell-based; conditions: EC50 host cell/EC50 T. gondii
Procedure: as §2, §1

C. parvum = C. parvum mouse model; cited from earlier work
[5] = Toxoplasma gondii, ME49-FLuc, 10-point dose-response, two biological replicates, read-out: EC50, T. gondii tachyzoite growth
[6] = Toxoplasma gondii, Table 2, read-out: T. gondii EC50
[7] = Toxoplasma gondii, Table S1, ME49-FLuc tachyzoites, read-out: T. gondii EC50
[8] = Toxoplasma gondii, from 10-dose-response curve of Fig. 1, read-out: EC90, tachyzoite growth
[9] = Fig 1A rank order, T. gondii growth
[10] = Toxoplasma gondii, Fig 2A Tg_Pf_Cp EC50s, read-out: EC50 T. gondii

Row | SMILES | EC50 log inhib vs normalized response [1] | 3XEC90 ([1]; Fig 6A source data) | pEC50 ([1]; ME49-FLuc, 10-point dose-response, two biological replicates, listed as BR7929, read-out: EC50, T. gondii tachyzoite growth) | pEC50 [1, 5] | pEC50 [1, 6] | pEC50 [1, 7] | pEC50 ([1]; Toxoplasma gondii, Fig 6A source data, in vitro tachyzoites, read-out: EC50) | EC90 ([1]; Toxoplasma gondii, Fig 6A source data, in vitro tachyzoites, read-out: EC90) [nM] | EC90 [1, 8] [nM] | 3xEC90, tachyzoite growth ([1]; three times EC90) [µM] | pEC50 (in vitro) | Plaque numbers ([2]; 3xEC90) | Plaque numbers ([2]; EC90) | EC50 log inhib vs normalized response [1, 9] | pEC50 [1, 10] | selectivity ratio (in vitro) | A549 fold selectivity [3] [fold] | HEPG2 fold selectivity [4] [fold] | pEC50 ([1]; Toxoplasma gondii, Fig S2 source data, read-out: T. gondii (EC50, Fig S2 source data)) | reduction of oocyst shedding (C. parvum) [%]
1 | COc1ccc(NC(=O)N2CCCCN3[C@H](CN(C)C)[C@H](c4ccc(C#Cc5ccccc5)cc4)[C@@H]3C2)cc1 [BRD7929] | 0.0226 | 293.00 | 7.65 | 7.64 | 7.64 | 7.66 | 7.64 | 98 | 98 | 0.293 | 5.15 | 0 | 0 | – | – | – | – | – | – | –
2 | COc1ccc(NC(=O)N2CCCCN3[C@H](CN(C)S(C)(=O)=O)[C@H](c4ccc(C#Cc5ccccc5)cc4)[C@@H]3C2)cc1 [BRD8494] | – | – | – | 7.46 | 7.46 | 7.47 | – | – | 95 | – | < 4.70 | 0 | 0 | 0.03476 | 7.46 | 571 | > 571.4 | 571.4 | – | –
3 | CN(C[C@@H]1[C@H](c2ccc(C#Cc3ccccc3)cc2)[C@@H]2CN(C(=O)Nc3ccc(OC4CC4)cc3)CCCCN12)S(C)(=O)=O [BRD2987] | – | – | – | 7.73 | 7.72 | 7.74 | – | – | – | – | < 4.70 | 0 and 5 | 0 | 0.01849 | – | – | 114.0 | – | 7.73 | –
4 | COc1ccc(NC(=O)N2CCCCN3[C@H](CO)[C@H](c4ccc(C#Cc5ccccc5)cc4)[C@@H]3C2)cc1 [BRD3444] | – | – | – | 7.54 | 7.54 | 7.55 | – | – | – | – | 5.11 | 0 | 5 and 0 | 0.02885 | 7.54 | 270 | – | 390.6 | – | 96
